Reference: ChEMBL document CHEMBL1743201, “Casarett and Doull's Toxicology The Basic Science of Poisons, 7th edition” (2008)

Columns and labels:
[1] = molecular target: Cytochrome P450 2E1 (Homo sapiens, UniProt P05181); assay: Clinically relevant substrates of human liver microsomal P450 enzymes, isoform CYP2E1; format: ADME; details: microsomes
[2] = molecular target: Microsomal glutathione S-transferase 2 (Homo sapiens, UniProt Q99735); assay: Substrates for human microsomal glutathione transferase MGST2; format: ADME
Sequence of Microsomal glutathione S-transferase 2 (Q99735 whole entry, canonical isoform): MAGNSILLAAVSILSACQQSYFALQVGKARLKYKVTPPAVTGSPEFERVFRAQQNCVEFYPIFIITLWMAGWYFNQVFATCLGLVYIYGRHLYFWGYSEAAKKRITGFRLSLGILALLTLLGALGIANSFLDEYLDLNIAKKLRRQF

[3] = molecular target: T1, Cytochrome P450 2A6 (Homo sapiens, UniProt P11509); assay: Clinically relevant inhibitors of human liver microsomal P450 enzymes, isoform CYP2A6; format: ADME; details: microsomes
T1 sequence (P11509 whole entry): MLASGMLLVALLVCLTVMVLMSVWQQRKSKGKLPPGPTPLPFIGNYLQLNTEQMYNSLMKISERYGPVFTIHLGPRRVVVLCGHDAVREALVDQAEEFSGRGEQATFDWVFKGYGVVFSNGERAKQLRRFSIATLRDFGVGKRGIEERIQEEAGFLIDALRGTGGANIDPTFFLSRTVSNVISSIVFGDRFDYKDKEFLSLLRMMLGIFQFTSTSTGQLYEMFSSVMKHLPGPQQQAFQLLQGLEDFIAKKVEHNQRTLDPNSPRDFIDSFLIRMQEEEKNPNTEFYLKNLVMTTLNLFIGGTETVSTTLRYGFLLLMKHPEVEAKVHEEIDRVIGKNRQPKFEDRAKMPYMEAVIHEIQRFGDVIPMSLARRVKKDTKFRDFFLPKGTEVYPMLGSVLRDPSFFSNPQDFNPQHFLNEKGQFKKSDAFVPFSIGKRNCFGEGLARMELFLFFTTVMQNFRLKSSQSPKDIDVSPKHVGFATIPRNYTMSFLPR

[4] = molecular target: T2, Glutathione S-transferase A2 (Homo sapiens, UniProt P09210); assay: Substrates for human cytosolic glutathione transferase GSTA2; format: ADME
T2 sequence (P09210 whole entry): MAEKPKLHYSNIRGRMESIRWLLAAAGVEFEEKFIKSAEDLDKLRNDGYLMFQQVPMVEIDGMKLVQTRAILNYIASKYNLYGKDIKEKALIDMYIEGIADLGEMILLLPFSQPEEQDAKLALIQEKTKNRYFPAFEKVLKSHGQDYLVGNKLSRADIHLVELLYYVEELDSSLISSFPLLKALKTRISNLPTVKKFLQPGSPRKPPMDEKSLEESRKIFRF

[5] = molecular target: Glutathione S-transferase A3 (Homo sapiens, UniProt Q16772); assay: Substrates for human cytosolic glutathione transferase GSTA3; format: ADME
Sequence of Glutathione S-transferase A3 (Q16772 whole entry): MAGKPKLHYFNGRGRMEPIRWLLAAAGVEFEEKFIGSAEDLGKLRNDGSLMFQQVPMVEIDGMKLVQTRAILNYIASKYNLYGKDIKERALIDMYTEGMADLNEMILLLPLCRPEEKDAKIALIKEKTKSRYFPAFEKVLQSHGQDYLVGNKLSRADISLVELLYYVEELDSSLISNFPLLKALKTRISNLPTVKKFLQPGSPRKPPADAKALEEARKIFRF

[6] = molecular target: T3, Glutathione S-transferase A1 (Homo sapiens, UniProt P08263); assay: Substrates for human cytosolic glutathione transferase GSTA1; format: ADME
T3 sequence (P08263 whole entry): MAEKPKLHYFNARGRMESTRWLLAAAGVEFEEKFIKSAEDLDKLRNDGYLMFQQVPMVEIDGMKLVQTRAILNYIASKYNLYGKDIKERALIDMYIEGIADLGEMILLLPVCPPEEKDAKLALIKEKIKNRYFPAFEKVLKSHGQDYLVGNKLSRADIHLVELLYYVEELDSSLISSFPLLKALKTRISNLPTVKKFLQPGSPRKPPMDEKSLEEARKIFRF

[7] = molecular target: T4, Nuclear receptor subfamily 1 group I member 3 (Mus musculus, UniProt O35627); assay: Constitutive androstane receptor agonist
T4 sequence (O35627 whole entry): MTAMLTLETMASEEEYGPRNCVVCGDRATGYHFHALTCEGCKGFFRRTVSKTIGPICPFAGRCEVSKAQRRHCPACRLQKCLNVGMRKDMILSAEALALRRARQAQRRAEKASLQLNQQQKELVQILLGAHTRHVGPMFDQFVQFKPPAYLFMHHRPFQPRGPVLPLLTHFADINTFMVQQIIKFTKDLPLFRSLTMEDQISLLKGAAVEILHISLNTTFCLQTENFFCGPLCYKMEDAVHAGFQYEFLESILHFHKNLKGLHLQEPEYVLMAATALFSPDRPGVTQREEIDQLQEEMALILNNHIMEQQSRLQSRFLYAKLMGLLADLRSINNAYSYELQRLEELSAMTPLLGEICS

[8] = molecular target: Sulfotransferase 1A2 (Homo sapiens, UniProt P50226); assay: Major substrate of human cytosolic sulfotransferase SULT1A2; format: ADME
Sequence of Sulfotransferase 1A2 (P50226 whole entry): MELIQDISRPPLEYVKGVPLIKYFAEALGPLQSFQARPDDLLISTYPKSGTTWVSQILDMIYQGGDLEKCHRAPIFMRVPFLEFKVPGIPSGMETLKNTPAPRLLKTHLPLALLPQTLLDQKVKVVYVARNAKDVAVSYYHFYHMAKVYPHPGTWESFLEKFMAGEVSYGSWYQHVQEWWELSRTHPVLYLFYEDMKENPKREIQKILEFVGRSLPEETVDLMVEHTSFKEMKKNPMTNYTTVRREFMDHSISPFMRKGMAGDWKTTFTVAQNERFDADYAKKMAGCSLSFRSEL

[9] = molecular target: T5, Sulfotransferase 4A1 (Homo sapiens, UniProt Q9BR01); assay: Major substrate of human cytosolic sulfotransferase SULT4A1_v1; format: ADME
T5 sequence (Q9BR01 whole entry): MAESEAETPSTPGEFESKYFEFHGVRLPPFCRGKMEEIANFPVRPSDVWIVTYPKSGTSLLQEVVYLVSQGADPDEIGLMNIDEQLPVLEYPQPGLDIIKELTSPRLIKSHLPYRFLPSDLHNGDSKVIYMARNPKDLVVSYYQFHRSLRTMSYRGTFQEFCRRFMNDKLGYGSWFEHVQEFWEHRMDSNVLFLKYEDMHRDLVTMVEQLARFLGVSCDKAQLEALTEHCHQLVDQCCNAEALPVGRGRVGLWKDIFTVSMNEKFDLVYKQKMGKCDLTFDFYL

[10] = molecular target: Sulfotransferase 1A1 (Homo sapiens, UniProt P50225); assay: Major substrate of human cytosolic sulfotransferase SULT1A1; format: ADME
Sequence of Sulfotransferase 1A1 (P50225 whole entry): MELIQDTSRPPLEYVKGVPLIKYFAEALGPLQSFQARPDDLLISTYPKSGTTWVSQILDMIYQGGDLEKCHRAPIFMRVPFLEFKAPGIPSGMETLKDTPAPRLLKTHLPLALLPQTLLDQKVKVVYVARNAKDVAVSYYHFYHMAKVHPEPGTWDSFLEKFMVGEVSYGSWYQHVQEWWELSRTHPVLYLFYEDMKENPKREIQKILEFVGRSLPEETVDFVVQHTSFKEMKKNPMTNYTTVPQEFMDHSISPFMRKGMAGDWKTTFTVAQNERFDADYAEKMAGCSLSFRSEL

[11] = molecular target: T6, Nuclear receptor subfamily 1 group I member 3 (Homo sapiens, UniProt Q14994); assay: Constitutive androstane receptor inverse agonist
T6 sequence (Q14994 whole entry): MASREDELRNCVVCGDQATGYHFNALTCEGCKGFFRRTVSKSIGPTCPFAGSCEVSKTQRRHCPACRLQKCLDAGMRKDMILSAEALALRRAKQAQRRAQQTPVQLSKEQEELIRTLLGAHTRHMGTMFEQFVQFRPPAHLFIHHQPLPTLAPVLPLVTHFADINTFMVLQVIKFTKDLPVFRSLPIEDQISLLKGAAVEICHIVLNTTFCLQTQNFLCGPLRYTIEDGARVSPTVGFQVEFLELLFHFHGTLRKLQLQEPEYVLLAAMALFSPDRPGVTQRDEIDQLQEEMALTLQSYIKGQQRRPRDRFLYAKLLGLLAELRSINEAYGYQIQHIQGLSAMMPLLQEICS

[12] = molecular target: Glutathione S-transferase theta-2 (Homo sapiens, UniProt P0CG29); assay: Substrates for human cytosolic glutathione transferase GSTT2; format: ADME
Sequence of Glutathione S-transferase theta-2 (P0CG29 whole entry): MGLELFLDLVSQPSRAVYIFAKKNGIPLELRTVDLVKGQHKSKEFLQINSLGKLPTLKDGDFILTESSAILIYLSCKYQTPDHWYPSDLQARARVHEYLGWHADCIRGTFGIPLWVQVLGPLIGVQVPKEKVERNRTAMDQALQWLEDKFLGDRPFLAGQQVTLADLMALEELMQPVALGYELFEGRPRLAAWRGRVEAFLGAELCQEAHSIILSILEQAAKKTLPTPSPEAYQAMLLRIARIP

[13] = molecular target: Glutathione S-transferase Mu 3 (Homo sapiens, UniProt P21266); assay: Substrates for human cytosolic glutathione transferase GSTM3; format: ADME
Sequence of Glutathione S-transferase Mu 3 (P21266 whole entry): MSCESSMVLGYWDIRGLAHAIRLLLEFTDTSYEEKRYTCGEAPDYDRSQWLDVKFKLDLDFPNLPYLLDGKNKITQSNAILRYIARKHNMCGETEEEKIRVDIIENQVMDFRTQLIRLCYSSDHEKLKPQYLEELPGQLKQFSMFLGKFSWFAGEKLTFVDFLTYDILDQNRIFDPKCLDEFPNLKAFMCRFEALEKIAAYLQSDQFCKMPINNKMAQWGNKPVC

[14] = molecular target: T7, Glutathione S-transferase theta-1 (Homo sapiens, UniProt P30711); assay: Substrates for human cytosolic glutathione transferase GSTT1; format: ADME
T7 sequence (P30711 whole entry): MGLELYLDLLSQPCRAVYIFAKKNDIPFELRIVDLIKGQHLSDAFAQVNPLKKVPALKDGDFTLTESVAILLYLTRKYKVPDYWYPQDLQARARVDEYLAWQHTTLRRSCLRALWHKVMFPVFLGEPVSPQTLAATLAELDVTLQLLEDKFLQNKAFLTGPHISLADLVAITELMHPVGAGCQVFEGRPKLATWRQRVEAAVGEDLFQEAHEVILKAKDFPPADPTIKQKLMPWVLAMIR

[15] = molecular target: T8, Cytochrome P450 2B6 (Homo sapiens, UniProt P20813); assay: Clinically relevant inducers of human liver microsomal P450 enzymes, isoform CYP2B6; format: ADME; details: microsomes
T8 sequence (P20813 whole entry): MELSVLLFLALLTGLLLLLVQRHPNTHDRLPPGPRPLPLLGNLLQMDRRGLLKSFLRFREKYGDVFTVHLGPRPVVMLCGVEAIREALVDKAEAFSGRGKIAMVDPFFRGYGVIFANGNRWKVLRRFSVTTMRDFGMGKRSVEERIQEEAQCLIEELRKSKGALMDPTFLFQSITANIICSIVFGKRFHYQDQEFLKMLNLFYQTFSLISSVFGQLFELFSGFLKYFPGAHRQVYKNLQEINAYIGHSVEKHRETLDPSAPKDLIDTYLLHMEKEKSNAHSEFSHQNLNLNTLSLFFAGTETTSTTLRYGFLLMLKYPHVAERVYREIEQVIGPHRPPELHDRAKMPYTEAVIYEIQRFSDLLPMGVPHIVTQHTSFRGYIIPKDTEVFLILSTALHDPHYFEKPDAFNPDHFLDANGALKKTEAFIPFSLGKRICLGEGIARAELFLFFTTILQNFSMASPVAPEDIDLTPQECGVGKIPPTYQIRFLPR

[16] = molecular target: Cytochrome P450 2C9 (Homo sapiens, UniProt P11712); assay: Clinically relevant substrates of human liver microsomal P450 enzymes, isoform CYP2C9; format: ADME; details: microsomes
Sequence of Cytochrome P450 2C9 (P11712 whole entry, canonical isoform): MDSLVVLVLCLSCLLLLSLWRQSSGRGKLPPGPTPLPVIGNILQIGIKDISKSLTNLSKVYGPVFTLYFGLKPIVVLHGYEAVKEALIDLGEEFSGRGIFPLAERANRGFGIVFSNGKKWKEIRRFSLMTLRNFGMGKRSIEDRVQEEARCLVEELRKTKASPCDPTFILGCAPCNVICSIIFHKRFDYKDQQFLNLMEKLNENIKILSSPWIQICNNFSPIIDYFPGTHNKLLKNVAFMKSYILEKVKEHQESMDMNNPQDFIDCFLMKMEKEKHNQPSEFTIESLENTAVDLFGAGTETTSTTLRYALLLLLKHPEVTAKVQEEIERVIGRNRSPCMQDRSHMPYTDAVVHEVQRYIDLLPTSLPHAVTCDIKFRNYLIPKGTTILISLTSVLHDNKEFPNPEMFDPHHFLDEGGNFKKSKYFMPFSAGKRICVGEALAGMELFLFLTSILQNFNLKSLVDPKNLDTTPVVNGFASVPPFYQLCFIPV

[17] = molecular target: T4, Nuclear receptor subfamily 1 group I member 3; assay: (§1) Constitutive androstane receptor indirect activator; format: ADME
[18] = molecular target: T6, Nuclear receptor subfamily 1 group I member 3; assay: as §1; format: ADME
[19] = molecular target: T9, Microsomal glutathione S-transferase 1 (Homo sapiens, UniProt P10620); assay: Substrates for human microsomal glutathione transferase MGST1; format: ADME
T9 sequence (P10620 whole entry): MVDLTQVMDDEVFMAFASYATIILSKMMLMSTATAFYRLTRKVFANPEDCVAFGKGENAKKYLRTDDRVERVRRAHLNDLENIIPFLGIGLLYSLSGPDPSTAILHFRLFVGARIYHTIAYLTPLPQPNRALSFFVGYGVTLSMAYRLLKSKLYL

[20] = molecular target: T10, Glutathione S-transferase kappa 1 (Homo sapiens, UniProt Q9Y2Q3); assay: Substrates for human mitochondrial glutathione transferase GSTK1; format: ADME
T10 sequence (Q9Y2Q3 whole entry): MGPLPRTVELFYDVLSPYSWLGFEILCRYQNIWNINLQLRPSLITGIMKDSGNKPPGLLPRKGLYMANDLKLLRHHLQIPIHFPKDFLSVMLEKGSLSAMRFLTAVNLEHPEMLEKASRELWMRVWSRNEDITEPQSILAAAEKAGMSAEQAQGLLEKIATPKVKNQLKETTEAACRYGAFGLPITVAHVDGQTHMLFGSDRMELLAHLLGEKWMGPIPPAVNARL

Sequence of Cytochrome P450 2E1 (P05181 whole entry, canonical isoform): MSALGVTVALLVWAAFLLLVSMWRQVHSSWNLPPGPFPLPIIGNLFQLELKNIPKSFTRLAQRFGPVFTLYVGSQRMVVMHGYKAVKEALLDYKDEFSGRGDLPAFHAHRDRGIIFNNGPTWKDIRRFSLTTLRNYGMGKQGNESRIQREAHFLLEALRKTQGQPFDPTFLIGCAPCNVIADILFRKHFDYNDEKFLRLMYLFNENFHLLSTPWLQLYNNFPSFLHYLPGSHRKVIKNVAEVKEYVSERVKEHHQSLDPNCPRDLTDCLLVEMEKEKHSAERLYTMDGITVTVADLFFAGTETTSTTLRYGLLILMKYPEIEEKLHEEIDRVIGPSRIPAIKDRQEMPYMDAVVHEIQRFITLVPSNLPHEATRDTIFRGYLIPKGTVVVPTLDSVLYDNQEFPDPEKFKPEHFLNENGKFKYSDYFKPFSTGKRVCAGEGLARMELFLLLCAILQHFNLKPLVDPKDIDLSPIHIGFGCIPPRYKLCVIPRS

With `Nc1ccccc1` [ANILINE] the Activity [1] was “Substrate”.

With `CCCCCCCCCCCC(=O)O` [DODECANOATE] the Activity [1] was “Substrate”.

`CCCCC/C=C\C/C=C\C/C=C\C=C\[C@H](CCCC(=O)O)OO` was tested, and the Activity [2] was “Substrate”.

`NCCc1c[nH]c2ccccc12` [TRYPTAMINE] was tested, and the Activity [3] was “Inhibitor”.

In the case of `O=[N+]([O-])c1ccc(Cl)c2nonc12`, the Activity [4] was “Substrate”.

In the case of `C[C@]12CCC(=O)CC1=CC[C@@H]1[C@@H]2CC[C@]2(C)C(=O)CC[C@@H]12`, the Activity [5] was “Substrate” and the Activity [6] was “Substrate”.

For `CC[C@@H]1C(=O)OC[C@@H]1Cc1cncn1C` [PILOCARPINE], the Activity [3] was “Inhibitor”.

For `Clc1ccccc1C(c1ccccc1)(c1ccccc1)n1ccnc1` [CLOTRIMAZOLE], the Activity [7] was “agonist”.

In the case of `Oc1ccc2ccccc2c1` [BETANAPHTHOL], the Activity [8] was “Substrate”, the Activity [9] was “Substrate” and the Activity [10] was “Substrate”.

With `CN(C)CCCN1c2ccccc2Sc2ccc(Cl)cc21` [CHLORPROMAZINE] the Activity [11] was “inverse agonist” and the Activity [7] was “agonist”.

For `O=S(=O)(O)Cc1ccc2ccccc2c1` [MENAPHTHYL SULFONATE], the Activity [12] was “Substrate”.

With `O=NN(CCCl)C(=O)NCCCl` [CARMUSTINE] the Activity [13] was “Substrate” and the Activity [14] was “Substrate”.

In the case of `O=C1NC(=O)C(c2ccccc2)(c2ccccc2)N1` [PHENYTOIN], the Activity [15] was “Inducer”, the Activity [16] was “Substrate” and the Activity [17] was “indirect activator”. For the same compound, the Activity [18] was “indirect activator”.

For `Cc1cccc(CN2CCN(C(c3ccccc3)c3ccc(Cl)cc3)CC2)c1` (configuration not stated) [MECLIZINE], the Activity [11] was “inverse agonist” and the Activity [7] was “agonist”.

In the case of `CC(C)(OO)c1ccccc1` [CUMENE HYDROPEROXIDE], the Activity [4] was “Substrate”, the Activity [19] was “Substrate” and the Activity [12] was “Substrate”. The Activity [20] was “Substrate”.

In the case of `OC1c2c(cc3ccc4cccc5c6ccccc6c2c3c45)C2OC2C1O` (configuration not stated) [DIBENZO[A,L]PYRENE DIOL EPOXIDE], the Activity [5] was “Substrate”, the Activity [4] was “Substrate” and the Activity [6] was “Substrate”.

With `N[C@@H]1C[C@H]1c1ccccc1.N[C@H]1C[C@@H]1c1ccccc1` [TRANYLCYPROMINE] the Activity [3] was “Inhibitor”.

With `ClC(Cl)=C(Cl)C(Cl)=C(Cl)Cl` [HEXACHLOROBUTADIENE] the Activity [19] was “Substrate”.
